# In patent publication US10167299B2, “1-(3-aminopropyl) substituted cyclic amine compounds, preparation method therefor, and pharmaceutical compositions and uses thereof” (SHANGHAI INSTITUTE OF MATERIA MEDICA, CHINESE ACADEMY OF …, priority 2013, dated 2019):
# Read-outs that look alike come from different tables or passages of the source.
# What was measured:
# HIV-1KM018 virus strain = test: Inhibition of viral replication in PBMC infected with HIV-1KM018; format: cell-based
# Method: (§1) The virus was titrated according to the modified method of Johnson & Byington. Briefly, the HIV-1 stock solution was subject to four-fold dilution in a 96-well plate (ten gradients) sextuplicate for each gradient, while setting six control-wells. Into each well was added 100 μl (5×10^6/ml) PHA-stimulated PBMC cells and final volume per well was 200 μl. The cells were cultured at 37° C. with 5% CO2. […] On the seventh day, the infected supernatant was collected and lysed with 0.5% Triton X100. The p24 antigen was detected by ELISA and TCID50 of virus was calculated according to Reed & Muench method (50% Tissue culture infection dose).
# (§2) The starting concentration was 1 μM, six dilutions were obtained, and each well contained 200 μl mixture. While wells not containing drugs were set as control. […] After homogeneously mixed, the mixture was immediately added to 48-well plate containing diluted drug and each well was added with 200 μl of mixture. MVC was used as positive control. The cells were cultured at 37° C. with 5% CO2 for seven days (drug with the same concentration was added on the third day). The supernatant was collected, lysed and inactivated with 0.5% Triton X-100. The inhibition effect of drug on HIV-1 replication was detected using p24 antigen capture ELISA method.
# HIV-1Ba-L virus strain [1] = test: Inhibition of viral replication in PBMC infected with HIV-1Ba-L; format: cell-based
# Method: The virus was titrated according to the modified method of Johnson & Byington. Briefly, the HIV-1 stock solution was subject to four-fold dilution in a 96-well plate (ten gradients) sextuplicate for each gradient, while setting six control-wells. Into each well was added 100 μl (5×10^6/ml) PHA-stimulated PBMC cells and final volume per well was 200 μl. The cells were cultured at 37° C. with 5% CO2. On the third day, 100 μl of fresh RPMI-1640 complete medium was supplemented. On the seventh day, the infected supernatant was collected and lysed with 0.5% Triton X100. The p24 antigen was detected by ELISA and TCID50 of virus was calculated according to Reed & Muench method (50% Tissue culture infection dose).
# The compound to be tested was subject to 5-fold dilution in 48-well plate with RPMI-1640 complete medium (containing 10% FBS). The starting concentration was 1 μM, six dilutions were obtained, and each well contained 200 μl mixture. While wells not containing drugs were set as control. Virus (MOI=0.01) was added to 5×10^6/ml of PBMC cells which have been stimulated by PHA for 72 h. After homogeneously mixed, the mixture was immediately added to 48-well plate containing diluted drug and each well was added with 200 μl of mixture. MVC was used as positive control. The cells were cultured at 37° C. with 5% CO2 for seven days (drug with the same concentration was added on the third day). The supernatant was collected, lysed and inactivated with 0.5% Triton X-100. The inhibition effect of drug on HIV-1 replication was detected using p24 antigen capture ELISA method.
# HIV-1SF162 virus strain [2] = test: Inhibition of viral replication in HOS-CD4-CCR5 cells infected with HIV-1SF162; format: cell-based
# Method: (§3) On the day before the test, 1×10^5/ml of HOS-CD4-CCR5 cells were inoculated in 96-well plates with 100 μl for each well. The compound to be tested was subject to 5-fold dilution in 96-well microtiter plate with DMEM complete medium (containing 10% FBS). The starting concentration was 1 μM and six dilutions were obtained. Triplicate wells were set for each dilution and each well contained 100 μl mixture. While wells not containing drugs were set as control. The supernatant was removed and 100 μl of drug was added and incubated for 2 h. Then 100 μl of HIV-1SF162 and HIV-1Ba-L were added to dilute supernatant. The cells were infected for 1 h, free virus was washed out and drug with the same final concentration was added. MVC was used as positive control. The cells were cultured at 37° C. with 5% CO2 for three days. The supernatant was collected, lysed and inactivated with 0.5% Triton X-100. The inhibition effect of drug on HIV-1 replication was detected using p24 antigen capture ELISA method.
# in vivo = settings: male, rat
# HIV-1SF162 virus strain [3] = test: Inhibition of viral replication in PBMC infected with HIV-1SF162; format: cell-based
# Method: as §1, §2
# HIV-1Ba-L virus strain [4] = test: Inhibition of viral replication in HOS-CD4-CCR5 cells infected with HIV-1Ba-L; format: cell-based
# Method: as §3
# [5] = Toxicity test of compounds on HOS-CD4-CCR5 cells (MTT); format: cell-based; settings: human; HOS-CD4+-CCR5 cells (Table 7)
# Method: (§4) The compound to be tested was subject to 5-fold dilution in a 96-well microtiter plate with RPMI-1640 or DMEM complete medium (containing 10% FBS) (Six dilution) triplicate for each dilution and 100 μl for each well. While wells not containing drugs were set as control. Into each well was added 100 μl of 4×10^5/ml PM1, HOS-CD4-CCR5 cells or 100 μl of 5×10^6/ml PHA stimulated PBMC. The cells were cultured at 37° C. with 5% CO2 for three days (PBMC cells were cultured for seven days and 100 μl of fresh RPMI-1640 complete medium was supplemented on the third day). Cytotoxicity was tested with MTT assay. OD values were measured by ELx800 microplate reader. The detection wavelength was 570 nm, and the reference wavelength was 630 nm.
# [6] = Cytotoxicity (CC50) in TZM-bl cells; format: cell-based; settings: human; TZM-bl cells (Table 3); read-out: CC50
# [7] = Toxicity test of compounds on PBMC cells (MTT); format: cell-based; settings: human, PBMC cells (Table 4)
# Method: as §4
# CYP2D6 = CYP2D6 (Homo sapiens (Human), UniProt P10635); test: CYP450 inhibition activity assay (Vivid kit) CYP2D6; format: in vitro ADME; settings: CYP450 subtype (μM) 2D6 (IC50)
# Method: VividR CYP450 Screening Kits can be used to evaluate the effects on CYP450 subtypes (CYP1A2, CYP2D6, CYP2C9, CYP2C19, CYP3A4-T and CYP3A4-M) and the substrate VividR in the kit can be metabolizd to a product which can emit strong fluorescence in an aqueous solution by specific CYP450 enzymes.
# The compounds to be tested and positive compound were added to corresponding wells and DMSO was added to control wells.
# CYP450 enzyme was added to the compounds to be tested, positive compound and DMSO control wells. The enzyme dilution was used to replace enzyme and added to DMSO wells as test background. The mixture was vibrated and mixed for 1 minute, and then incubated at room temperature for 20 minutes.
# NADP^+ regeneration system and the substrate were added to initiate the reaction and incubated at room temperature for 60 minutes.
# HIV-1SF162 virus strain [8] = test: Inhibition activity on TZM-bl cells infected with HIV-1SF162; settings: for EC50: Human immunodeficiency virus 1, TZM-bl; for therapeutic index (TI): TZM-bl cells infected with HIV-1SF162; for cytotoxicity in vitro and therapeutic index in words, versus positive control compound: TZM-bl cells infected with HIV-1SF162, conclusion from Table 3
# [9] = Human immunodeficiency virus 1, PBMC
# [10] = PBMC cells infected with HIV-1KM018
# [11] = PBMC cells infected with HIV-1Ba-L
# [12] = Human immunodeficiency virus 1, HOS-CD4-CCR5
# Sequence of CYP2D6 (P10635 whole entry): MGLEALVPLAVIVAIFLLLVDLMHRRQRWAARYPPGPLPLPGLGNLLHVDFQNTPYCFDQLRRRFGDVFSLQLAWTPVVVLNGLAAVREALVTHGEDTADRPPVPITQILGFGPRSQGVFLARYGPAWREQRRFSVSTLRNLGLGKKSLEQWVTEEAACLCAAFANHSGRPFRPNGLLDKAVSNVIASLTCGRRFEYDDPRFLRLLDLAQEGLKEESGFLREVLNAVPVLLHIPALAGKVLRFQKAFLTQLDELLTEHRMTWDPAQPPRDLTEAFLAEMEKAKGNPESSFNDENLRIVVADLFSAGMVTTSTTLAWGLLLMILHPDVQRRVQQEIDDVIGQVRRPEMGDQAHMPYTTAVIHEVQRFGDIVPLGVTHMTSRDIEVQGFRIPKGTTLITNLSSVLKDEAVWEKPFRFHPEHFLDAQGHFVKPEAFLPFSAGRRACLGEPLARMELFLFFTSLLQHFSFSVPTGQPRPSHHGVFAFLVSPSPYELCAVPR
compound,measurement,setting,value
"Cc1ccc([C@H](CCN2C3CCC2CC(n2c(C)nnc2C(C)C)C3)NC(=O)C2CCC(F)(F)CC2)s1 (stereo partly drawn) [Compound 29, 4,4-difluoro-N-[(1S)-3-[exo-3-(3-isopropyl-5-methyl-4H-1,2,4-triazol-4-yl)-8-azabicyclo[3.2.1]octane-8-yl]-1-(5-methylthiophen-2-yl)propyl]cyclohexane-1-carboxamide]",EC50,HIV-1KM018 virus strain; [9],0.103 µg/mL
same,therapeutic index (TI),HIV-1KM018 virus strain; [10],1937.2
same,EC50,HIV-1Ba-L virus strain [1]; [9],0.236 µg/mL
same,therapeutic index (TI),HIV-1Ba-L virus strain [1]; [11],818.3
same,EC50,HIV-1SF162 virus strain [2]; [12],0.0186 µg/mL
same,bioavailability,in vivo,40.1%
same,AUC(0-inf),in vivo; 10 mg/kg,2330 ng·h/mL
same,AUC(0-t),in vivo; 10 mg/kg,2330 ng·h/mL
same,Cmax,in vivo; 10 mg/kg,1690 ng/mL
same,MRT,in vivo; 10 mg/kg,2.29 h
same,Tmax,in vivo; 10 mg/kg,0.25 h
same,half-life,in vivo; 10 mg/kg,1.6 h
same,AUC(0-inf),"in vivo; po, 20 mg/kg",2790 ng·h/mL
same,AUC(0-t),"in vivo; po, 20 mg/kg",1870 ng·h/mL
same,Cmax,"in vivo; po, 20 mg/kg",580 ng/mL
same,MRT,"in vivo; po, 20 mg/kg",4.79 h
same,Tmax,"in vivo; po, 20 mg/kg",2 h
same,half-life,"in vivo; po, 20 mg/kg",32.8 h
same,EC50,HIV-1SF162 virus strain [3]; [9],0.00505 µg/mL
same,therapeutic index (TI),HIV-1Ba-L virus strain [4]; HOS-CD4+-CCR5 cells infected with HIV-1Ba-L,>9144
same,EC50,HIV-1Ba-L virus strain [4]; [12],0.0219 µg/mL
same,CC50 at 3 days,[5],> 200 µg/mL
same,CC50 at 3 days,[6],> 200 µg/mL
same,CC50 at 7 days,[7],> 200 µg/mL
same,IC50,CYP2D6,> 25 µM
same,EC50,HIV-1SF162 virus strain [8],0.012 µg/mL
same,therapeutic index (TI),HIV-1SF162 virus strain [8],>16666.67
same,"cytotoxicity in vitro and therapeutic index in words, versus positive control compound",HIV-1SF162 virus strain [8],comparable with the positive control compound
"Cc1nnc(C(C)C)n1C1CCN(CC[C@H](NC(=O)C2CCCC2)c2cccs2)CC1 [Compound 17, N-[(1S)-3-[4-(3-isopropyl-5-methyl-4H-1,2,4-triazol-4-yl)-piperidin-1-yl]-1-(thiophen-2-yl)propyl]cyclopentane-1-carboxamide]",EC50,"HIV-1KM018 virus strain; Human immunodeficiency virus 1, PBMC cells infected with HIV-1KM018, read-out: EC50",> 1 µg/mL
same,therapeutic index (TI),HIV-1KM018 virus strain; [10],<438.6
same,EC50,"HIV-1Ba-L virus strain [1]; Human immunodeficiency virus 1, PBMC cells infected with HIV-1Ba-L, read-out: EC50",0.848 µg/mL
same,therapeutic index (TI),HIV-1Ba-L virus strain [1]; [11],438.6
same,therapeutic index (TI),HIV-1SF162 virus strain [2]; HOS-CD4+-CCR5 cells infected with HIV-1SF162,8632
same,EC50,"HIV-1SF162 virus strain [2]; Human immunodeficiency virus 1, HOS-CD4+-CCR5 cells infected with HIV-1SF162, read-out: EC50",0.0509 µg/mL
same,half-life,"in vivo; iv, 10 mg/kg",2.22 h
same,half-life,"in vivo; po, 20 mg/kg",1.78 h
same,EC50,"HIV-1SF162 virus strain [3]; Human immunodeficiency virus 1, PBMC cells infected with HIV-1SF162, read-out: EC50",0.0413 µg/mL
same,therapeutic index (TI),HIV-1SF162 virus strain [3]; PBMC cells infected with HIV-1SF162,10621
same,EC50,"HIV-1Ba-L virus strain [4]; Human immunodeficiency virus 1, HOS-CD4+-CCR5 cells infected with HIV-1Ba-L, read-out: EC50",0.0155 µg/mL
same,CC50 at 3 days,[5],439 µg/mL
same,CC50,[6],> 200 µg/mL
same,CC50 at 7 days,[7]; PHA stimulated PBMC,439 µg/mL
same,IC50,CYP2D6,> 25 µM
same,EC50,HIV-1SF162 virus strain [8],0.0129 µg/mL
same,therapeutic index (TI),HIV-1SF162 virus strain [8],>15444.02
same,"cytotoxicity in vitro and therapeutic index in words, versus positive control compound",HIV-1SF162 virus strain [8],comparable with the positive control compound
